Results: patent US6635771B2, “N-benzhydryl indole compounds” (Wyeth, priority 2001, dated 2003)

Target: T1, cPLA2 (Homo sapiens, UniProt P47712)
T1 sequence (P47712 1-749): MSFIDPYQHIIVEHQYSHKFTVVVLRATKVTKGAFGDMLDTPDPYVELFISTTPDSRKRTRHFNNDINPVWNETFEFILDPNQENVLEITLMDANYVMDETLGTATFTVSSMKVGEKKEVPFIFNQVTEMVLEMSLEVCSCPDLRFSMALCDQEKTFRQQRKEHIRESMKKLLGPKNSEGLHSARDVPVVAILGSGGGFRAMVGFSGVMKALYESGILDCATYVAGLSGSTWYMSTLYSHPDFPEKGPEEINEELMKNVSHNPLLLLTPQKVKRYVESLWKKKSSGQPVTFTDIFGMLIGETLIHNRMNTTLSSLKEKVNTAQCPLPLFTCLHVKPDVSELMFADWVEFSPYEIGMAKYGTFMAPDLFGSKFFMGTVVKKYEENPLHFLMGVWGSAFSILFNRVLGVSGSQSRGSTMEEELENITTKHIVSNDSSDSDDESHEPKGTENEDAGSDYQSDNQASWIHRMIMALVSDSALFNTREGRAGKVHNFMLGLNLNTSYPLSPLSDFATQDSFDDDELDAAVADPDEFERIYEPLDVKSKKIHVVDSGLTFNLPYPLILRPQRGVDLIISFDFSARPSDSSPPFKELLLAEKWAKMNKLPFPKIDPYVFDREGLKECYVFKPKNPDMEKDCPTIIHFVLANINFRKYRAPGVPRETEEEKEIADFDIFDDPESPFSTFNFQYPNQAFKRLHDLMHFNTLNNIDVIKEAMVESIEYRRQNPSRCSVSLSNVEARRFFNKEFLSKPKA
Assay: Coumarine Assay
Type: biochemical
Details: 60 μM 7-hydroxycoumarinyl 6-heptenoate substrate, 4 μg cPLA2, pH 7.5, fluorescence ex 360 nm / em 460 nm; read-out: Coumarin IC50

| IC50 | Structure (SMILES) |
| --- | --- |
| 200 nM | O=C(O)c1ccc(S(=O)(=O)CCc2c(CCNS(=O)(=O)Cc3ccc(Cl)c(Cl)c3)n(C(c3ccccc3)c3ccccc3)c3ccc(Cl)cc23)cc1 [Example 140, 4-({2-[1-benzhydryl-5-chloro-2-(2-{[(3,4-dichlorobenzyl)sulfonyl]amino}ethyl)1H-indol-3-yl]ethyl}sulfonyl)benzoic acid] |
| 170 nM | Cc1cccc(C)c1CS(=O)(=O)NCCc1c(CCS(=O)(=O)c2ccc(C(=O)O)cc2)c2cc(Cl)ccc2n1C(c1ccccc1)c1ccccc1 [Example 141, 4-({2-[1-benzhydryl-5-chloro-2-(2-{[(2,6-dimethylbenzyl)sulfonyl]amino}ethyl) 1H-indol-3-yl]ethyl}sulfonyl)benzoic acid] |
